Molecular target: T1, KDM5A (Homo sapiens, UniProt P29375)
T1 construct: Full length KDM5A enzyme was expressed and purified inhouse; made in house
Assay: KDM5 enzyme assay, KDM5A HTRF (Example 463)
Assay type: biochemical
Details: compounds of Examples 1-432; read-out: Example 463 Assay KDM5A HTRF IC50
Method: Full length KDM5A enzyme was expressed and purified inhouse. Biotin-H3K4me3 peptide was purchased from New England Biolabs. HTRF reagents (containing Eu-labeled H3K4me1-2 antibody, and streptavidin-XL665) were purchased from Cis-Bio International. Plates were read on an Envision multi-label plate reader Perkin Elmer).
The HTRF assay mixture contained 2 nM full length KDM5A enzyme, 100 nM H3K4Me3 peptide substrate, 1 uM 2-OG, 100 uM Fe^2+, 500 uM ascorbate. 50 mM HEPES pH 7.0 buffer, 0.01% Triton-X 100, 2 mM DTT. […] The plates were incubated at room temperature for 60 minutes and then read in the Envision plate reader.

T1 sequence (P29375 whole entry): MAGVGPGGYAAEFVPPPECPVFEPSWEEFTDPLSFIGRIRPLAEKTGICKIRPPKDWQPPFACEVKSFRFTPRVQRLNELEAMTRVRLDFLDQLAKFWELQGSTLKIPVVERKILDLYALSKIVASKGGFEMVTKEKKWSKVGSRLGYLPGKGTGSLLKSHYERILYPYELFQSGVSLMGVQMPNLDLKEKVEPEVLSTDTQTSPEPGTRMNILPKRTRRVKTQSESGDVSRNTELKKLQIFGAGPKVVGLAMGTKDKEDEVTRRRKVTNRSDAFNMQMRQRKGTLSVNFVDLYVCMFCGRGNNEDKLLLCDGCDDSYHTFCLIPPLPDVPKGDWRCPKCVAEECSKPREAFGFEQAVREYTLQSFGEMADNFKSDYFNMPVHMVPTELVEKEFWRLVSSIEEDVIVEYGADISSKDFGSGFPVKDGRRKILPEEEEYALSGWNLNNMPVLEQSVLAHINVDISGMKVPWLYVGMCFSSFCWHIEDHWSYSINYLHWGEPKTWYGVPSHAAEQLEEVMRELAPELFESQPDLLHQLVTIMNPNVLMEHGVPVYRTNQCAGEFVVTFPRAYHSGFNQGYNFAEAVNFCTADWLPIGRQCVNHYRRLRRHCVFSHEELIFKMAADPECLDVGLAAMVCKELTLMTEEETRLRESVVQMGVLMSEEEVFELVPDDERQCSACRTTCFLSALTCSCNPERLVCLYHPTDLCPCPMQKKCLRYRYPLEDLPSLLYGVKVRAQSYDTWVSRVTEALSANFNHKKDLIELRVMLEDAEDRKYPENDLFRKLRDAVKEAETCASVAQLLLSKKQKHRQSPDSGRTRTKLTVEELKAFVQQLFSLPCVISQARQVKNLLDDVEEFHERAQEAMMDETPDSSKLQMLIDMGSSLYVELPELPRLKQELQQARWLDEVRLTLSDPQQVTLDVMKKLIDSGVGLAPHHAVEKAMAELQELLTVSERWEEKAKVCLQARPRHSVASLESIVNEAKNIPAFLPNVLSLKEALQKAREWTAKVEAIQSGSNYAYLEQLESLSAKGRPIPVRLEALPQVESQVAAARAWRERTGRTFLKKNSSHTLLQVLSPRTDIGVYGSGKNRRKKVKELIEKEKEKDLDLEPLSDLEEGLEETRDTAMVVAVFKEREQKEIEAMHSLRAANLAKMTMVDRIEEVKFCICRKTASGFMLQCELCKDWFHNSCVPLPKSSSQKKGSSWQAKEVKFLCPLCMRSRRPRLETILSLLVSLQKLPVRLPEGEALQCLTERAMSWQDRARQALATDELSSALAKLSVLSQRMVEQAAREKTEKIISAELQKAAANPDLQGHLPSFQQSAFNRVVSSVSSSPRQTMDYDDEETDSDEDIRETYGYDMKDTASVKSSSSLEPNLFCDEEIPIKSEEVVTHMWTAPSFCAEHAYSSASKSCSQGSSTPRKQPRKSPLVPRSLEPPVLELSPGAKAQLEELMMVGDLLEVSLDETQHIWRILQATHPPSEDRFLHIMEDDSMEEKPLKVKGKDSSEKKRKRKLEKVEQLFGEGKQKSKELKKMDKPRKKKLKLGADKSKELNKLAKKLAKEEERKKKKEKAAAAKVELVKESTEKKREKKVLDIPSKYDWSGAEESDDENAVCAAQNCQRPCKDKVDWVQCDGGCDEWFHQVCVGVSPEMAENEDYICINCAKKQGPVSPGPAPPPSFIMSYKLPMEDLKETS

First: CC(C)c1c(-c2ccnn2CC2CC2)[nH]c2c(C#N)cnn2c1=O (single isomer, unassigned) [Example 15, 5-(1-(cyclopropylmethyl)-1H-pyrazol-5-yl)-6-isopropyl-7-oxo-4,7-dihydropyrazolo[1,5-a]pyrimidine-3-carbonitrile]
Second: CC(C)c1c(-c2ccn(CC3CC3)n2)[nH]c2c(C#N)cnn2c1=O (single isomer, unassigned) [Example 16, 5-(1-(cyclopropylmethyl)-1H-pyrazol-3-yl)-6-isopropyl-7-oxo-4,7-dihydropyrazolo[1,5-a]pyrimidine-3-carbonitrile]
The IC50 of the first is 4.3-fold higher: 47 nM for the first, 11 nM for the second. The second is the more potent here.

Compared with `CC(C)NC(=O)c1ccc(-c2[nH]c3c(C#N)cnn3c(=O)c2C(C)C)cc1` [Compound 345], `CNC(=O)c1ccc(-c2[nH]c3c(C#N)cnn3c(=O)c2C(C)C)cc1` [Compound 368] is 1.9-fold lower in IC50: 140 nM for the first, 75 nM for the second. The second is the more potent here.

Going from `CC(C)c1c(-c2ccc(N3CCN(C)CC3)cc2)[nH]c2c(C#N)cnn2c1=O` [Compound 346] to `CC(C)c1c(-c2ccc(S(C)(=O)=O)cc2)[nH]c2c(C#N)cnn2c1=O` [Compound 350], the IC50 falls from 40 nM to 20 nM (2-fold). The second is the more potent here.

First: CC(C)c1c(-c2cc(Cl)cc(C#N)c2)[nH]c2c(C#N)cnn2c1=O [Compound 347]
Second: CNC(=O)c1ccc(-c2[nH]c3c(C#N)cnn3c(=O)c2C(C)C)cc1F [Compound 369]
The IC50 of the first is 3.5-fold lower: 24 nM for the first, 85 nM for the second. The first is the more potent here.

Going from `CC(C)c1c(-c2cccc(CNS(C)(=O)=O)c2)[nH]c2c(C#N)cnn2c1=O` [Compound 348] to `CC(C)c1c(-c2cccc(OCC3CC3)c2)[nH]c2c(C#N)cnn2c1=O` [Compound 355], the IC50 rises from 14 nM to 40 nM (2.9-fold). The first is the more potent here.

`CC(C)c1c(-c2cccc(-c3ccn[nH]3)c2)[nH]c2c(C#N)cnn2c1=O` [Compound 349] and `CC(C)c1c(-c2cccc(-c3ccccc3)c2)[nH]c2c(C#N)cnn2c1=O` [Compound 353] are the same in IC50: 14 nM for the first, 14 nM for the second.

`CC(C)c1c(-c2ccc(C(=O)NC3CC3)cc2)[nH]c2c(C#N)cnn2c1=O` [Compound 351] and `CC(C)c1c(-c2ccc(C(N)=O)cc2)[nH]c2c(C#N)cnn2c1=O` [Compound 367] are within 1.5-fold of each other in IC50: 27 nM for the first, 25 nM for the second.

Compared with `CC(C)c1c(-c2cnn(CCF)c2)[nH]c2c(C#N)cnn2c1=O` [Compound 352], `CCCn1cc(-c2[nH]c3c(C#N)cnn3c(=O)c2C(C)C)cn1` [Compound 364] is 1.5-fold lower in IC50: 27 nM for the first, 18 nM for the second. The second is the more potent here.

`CC(C)c1c(-c2ccc(C(F)(F)F)c(C3CC3)c2)[nH]c2c(C#N)cnn2c1=O` [Compound 354] and `CC(C)c1c(-c2ccc(C(F)(F)F)nc2)[nH]c2c(C#N)cnn2c1=O` [Compound 361] are within 1.5-fold of each other in IC50: 77 nM for the first, 52 nM for the second.

Compared with `CC(C)c1c(-c2cccc(OCc3ccccc3)c2)[nH]c2c(C#N)cnn2c1=O` [Compound 356], `CC(C)c1c(-c2cccc(COc3ccccc3)c2)[nH]c2c(C#N)cnn2c1=O` [Compound 358] is 1.8-fold lower in IC50: 44 nM for the first, 25 nM for the second.

`CC(C)c1c(-c2cccc(CN3CCOCC3)c2)[nH]c2c(C#N)cnn2c1=O` [Compound 357] and `CC(C)c1c(-c2cnn(-c3cccc(F)c3)c2)[nH]c2c(C#N)cnn2c1=O` [Compound 359] are within 1.5-fold of each other in IC50: 22 nM for the first, 20 nM for the second.

`CC(C)c1c(/C=C/C2CC2)[nH]c2c(C#N)cnn2c1=O` [Compound 360] and `Cc1nc(C)c(-c2[nH]c3c(C#N)cnn3c(=O)c2C(C)C)s1` [Compound 363] are within 1.5-fold of each other in IC50: 28 nM for the first, 25 nM for the second.

`CC(C)c1c(-c2cnn(-c3ccc(F)cc3)c2)[nH]c2c(C#N)cnn2c1=O` [Compound 362] and `CC(C)c1c(-c2cnn(CCNc3ccccc3)c2)[nH]c2c(C#N)cnn2c1=O` [Compound 366] are within 1.5-fold of each other in IC50: 24 nM for the first, 18 nM for the second.

`CCCCn1cc(-c2[nH]c3c(C#N)cnn3c(=O)c2C(C)C)cn1` [Compound 365] and `CC(C)c1c(-c2cnn(CCNCC(F)(F)F)c2)[nH]c2c(C#N)cnn2c1=O` [Compound 372] are within 1.5-fold of each other in IC50: 18 nM for the first, 15 nM for the second.

`CC(C)c1c(-c2cnn(CCN3CC(F)(F)C3)c2)[nH]c2c(C#N)cnn2c1=O` [Compound 370] and `CC(C)c1c(-c2cnn(CCN3CCC(F)(F)C3)c2)[nH]c2c(C#N)cnn2c1=O` [Compound 371] are within 1.5-fold of each other in IC50: 8 nM for the first, 11 nM for the second.

Source: patent US10035801B2, “Pyrazolo compounds and uses thereof” (CONSTELLATION PHARMACEUTICALS, INC., priority 2013, dated 2018)
